Results as given in patent US20130109049A1, “Method of Establishing a Fungal Nail Infection” (NOVABIOTICS LIMITED, priority 2009, published 2013).
In brackets after ≈: the same amount, converted by molar mass. Each block holds one molecule with its values, some of them ahead of it. Non-standard residues stand in square brackets, D forms with d. No end group written: not given here.

Tests used:
[1] = test system: Candida; assay: Ex vivo human nail fragment model, treatment of Candida infection; assay type: cell-based
Text: Trichophyton rubrum strain NCPF0118 was obtained from the National Collection of Pathogenic Fungi, Bristol, UK. Clinical isolates of T. rubrum DM2006 1661, T. rubrum DM2006 1358, T. mentagrophytes DM2006 1503, T. mentagrophytes DM2006 1498 were isolated from patients suffering a range of tinea infections and were purchased from Professor Michel Monod (Service de Dermatologie, Université de Lausanne, Switzerland). Clinical isolates of Candida samples were also obtained from patients suffering from Candidal infection.
The procedure was carried out as described for Example 1 above with modifications to the vehicle, and fungal strains used. Each nail was inoculated with 10 μl of a spore suspension of Candida. Following inoculation the nails were treated with 10% (w/v) Novexatin® (NP213) in a vehicle solution of 50% (w/v) PEG 8000 plus 20% (w/v) urea; 10% (w/v) NP339 in a vehicle solution of 50% (w/v) PEG 8000 plus 20% (w/v) urea; 10% (w/v) NP339 in a vehicle solution of water; a control solution of 50% (w/v) PEG 8000 plus 20% (w/v) urea; a control solution of water; a solution of 16 μg/ml Itraconazole® and 1.6% (w/v) DMSO in a vehicle solution of water and a control solution of 1.6% (w/v) DMSO. As for Experiment 1 above, nail fragments were treated daily for up to 28 days. […]
At the end of the treatment period, the nail fragments were placed in sterile 2 ml microcentrifuge tubes containing 450 μl of a suspension broth consisting of Sabouraud's Liquid Medium, pH 5.6, containing approximately 100 mg of sterile zirconia beads (0.5 mm diameter). […] Colonies were counted on dishes that contained between 20 and 200 colonies in total, and the total number of cfu present in each sample was calculated. […] The counts were corrected for the surface area of the nails studied to give cfu/cm^2, transformed to log10 and means and standard errors of the mean were calculated using GraphPad Prism 4 (GraphPad, San Diego, Calif.). […] When very low numbers of colonies were detected, as in Experiment 3, the calculated cfu values are shown in order to indicate trends.

[2] = test system: T. rubrum NCPF0118; assay: In vitro MIC100 testing; assay type: cell-based, Trichophyton rubrum; conditions: Trichophyton rubrum; versus T. rubrum NCPF0118 in vitro; read-out: concentration equal to 100× the MIC100
[3] = test system: Trichophyton rubrum strain NCPF0118; assay: Ex vivo human nail fragment model, treatment of established infection (cfu recovered); assay type: cell-based; conditions: Experiment 5; fluconazole at approximately 100×MIC100; 14 d and 28 d, daily
Protocol: For antifungal efficacy studies with human toe nails, a solution of 50% (w/v) PEG 8000 (Sigma-Aldrich; Cat No P2139) was prepared by autoclaving and then diluting with sterile 50% (w/v) urea solution (Sigma-Aldrich; Cat No 51457). This solution was mixed thoroughly by vortexing and allowed to stabilise at 50° C. for up to 2 h. After stabilisation, the temperature was allowed to drop to below 40° C. and a concentrated, filter-sterilised solution of Novexatin® (NP213), dissolved in deionised water was added. Final concentrations of PEG 8000 of 50% (w/v), urea of 0-20% (w/v) and Novexatin® (NP213) of 0-10% (w/v) were used in the experiments described below.
On arrival, the cultures were transferred to a Petri dish containing sterile Sabouraud Dextrose agar (Sigma-Aldrich; Cat No 84088, or equivalent) and grown for up to 7 d at 30° C. The resulting growth was scraped off and re-suspended in Sabouraud's liquid medium (Oxoid; Cat No CM 147, or equivalent) containing […] dimethyl sulfoxide (DMSO) as cryoprotectant to create a culture stock. The fungus was stored in 0.5 ml aliquots in 2 ml screw-capped polypropylene vials (Cryovials) at −80° C. Seven days prior to experimental use, 50 μl of the culture stock was used to inoculate a slope of Potato Dextrose agar (Merck; Cat No VM556130 609, or equivalent), which was incubated at 30° C. for up to 7 d. The surface of the resulting growth was gently perturbed in 3 ml of sterile distilled/deionised water. After filtration through 2 layers of sterile surgical gauze to remove debris and larger clumps of biomass, the absorbance of the resultant spore suspension was measured at 530 nm, then adjusted to the 0.5 MacFarland standard (OD approx. 0.15)^2.
Human toe nails were obtained from a podiatrist in Aberdeen following a successful application to the Grampian Local Research Ethics Committee. […] Large toe nails were cut into 4 pieces, each approximately 1 cm^2 in area, using nail clippers. Nails of normal thickness (≦2 mm) were chosen. The 4 fragments cut from each single nail were placed in quadrants marked on Petri-dishes containing phosphate buffered saline rendered solid with 1.2% (w/v) Technical Agar No. 3 (Oxoid; Cat No LP0013, or equivalent), subsequently referred to as PBS agar. The nail fragments were of irregular shape, so to ensure that each nail received the appropriate amount of the treatment solutions, the surface area was measured by photographing the nails over graph paper and determining the number of 1mm^2 squares covered by each nail. The thickness of the nails was measured with a micrometer and nails distributed among treatment groups, to avoid nail thickness providing an additional experimental variable.
Twenty four nail fragments from 6 whole large toenails were each inoculated with 10 μl of a spore suspension of T. rubrum NCPF0118 which was prepared as described above. The inoculum was applied to the ventral side of the nail (i.e. the side next to the skin in situ). The nails were incubated for 7 d at 30° C. to allow the fungus to infect the nail tissue. After this pre-incubation period, 12 of the fragments were assigned to each of 2 different treatment protocols, involving daily treatment with 2 different vehicle solutions, each containing a control and 3 different concentrations of Novexatin® (NP213). These vehicle solutions were: 50% (w/v) PEG 8000, and 50% (w/v) PEG 8000 plus 20% (w/v) urea. The concentrations of Novexatin® (NP213) studied were 0%, 1%, 5% and 10% (w/v). The solutions were applied at a volume of 10 μl/cm^2, corrected for the surface area of the different nail fragments as described above. The applied solution was spread over the dorsal side of the nail, to mimic the intended clinical treatment and the ventral side of the nail rested on the agar surface. Each time the nails were treated, they were transferred to a new sterile Petri dish containing PBS agar to minimise any build-up of fungal growth on the agar. Nail fragments were treated daily for 28 days. […]

Molecule: CN(C/C=C/C#CC(C)(C)C)Cc1cccc2ccccc12 [Terbinafine®, [(2E)-6,6-dimethylhept-2-en-4-yn-1-yl](methyl)(naphthalen-1-ylmethyl)amine, reference compound]
outcome of treatment ([1]; Experiment 7, 10 μg/ml, 14 d and 28 d): unsuccessful

MIC [2]: 360 µg/mL (≈ 1180 µM)
Molecule: OC(Cn1cncn1)(Cn1cncn1)c1ccc(F)cc1F [fluconazole, 2-(2,4-difluorophenyl)-1,3-bis(1H-1,2,4-triazol-1-yl)propan-2-ol, reference compound]
outcome of treatment [3]: unsuccessful

Molecule: dRdRdRdRdRdRdRdRdRdRdRdRdR ([dR][dR][dR][dR][dR][dR][dR][dR][dR][dR][dR][dR][dR]) [NP339]
recoverable fungal growth after treatment ([1]; Experiments 6 and 7, 10% (w/v), 14 d or 28 d, daily): no recoverable fungal growth
